# Calls of active or inactive are those of the source. The rule behind the calls is not given here.
# What was measured:
# RPMI-8226 [1] = assay: Growth inhibition of human RPMI8226 cells at 1 uM after 48 hrs by sulforhodamine B assay; format: functional, cell-based
# HCT-15 = assay: Growth inhibition of human HCT15 cells after 48 hrs by sulforhodamine B assay; format: functional; conditions: HCT-15, 48 h
# COLO 205 [2] = assay: Growth inhibition of human COLO205 cells at 1 uM after 48 hrs by sulforhodamine B assay; format: functional, cell-based
# RPMI-8226 [3] = assay: Growth inhibition of human RPMI8226 cells after 48 hrs by sulforhodamine B assay; format: functional; conditions: RPMI-8226, 48 h
# EKVX = assay: Growth inhibition of human EKVX cells at 1 uM after 48 hrs by sulforhodamine B assay; format: functional, cell-based
# UACC-62 = assay: Growth inhibition of human UACC62 cells after 48 hrs by sulforhodamine B assay; format: functional; conditions: UACC-62, 48 h
# SF-539 = assay: Growth inhibition of human SF539 cells at 1 uM after 48 hrs by sulforhodamine B assay; format: functional, cell-based
# SN12C [4] = assay: Growth inhibition of human SN12C cells at 1 uM after 48 hrs by sulforhodamine B assay; format: functional, cell-based
# UACC-257 = assay: Growth inhibition of human UACC257 cells after 48 hrs by sulforhodamine B assay; format: functional; conditions: UACC-257, 48 h
# NCI-H460 [5] = assay: Growth inhibition of human NCI-H460 cells at 1 uM after 48 hrs by sulforhodamine B assay; format: functional, cell-based
# TK-10 [6] = assay: Growth inhibition of human TK10 cells at 1 uM after 48 hrs by sulforhodamine B assay; format: functional, cell-based
# HCT-116 [7] = assay: Growth inhibition of human HCT116 cells at 1 uM after 48 hrs by sulforhodamine B assay; format: functional, cell-based
# A498 [8] = assay: Growth inhibition of human A498 cells after 48 hrs by sulforhodamine B assay; format: functional; conditions: A498, 48 h
# K562 = assay: Growth inhibition of human K562 cells at 1 uM after 48 hrs by sulforhodamine B assay; format: functional, cell-based
# T47D = assay: Growth inhibition of human T47D cells at 1 uM after 48 hrs by sulforhodamine B assay; format: functional, cell-based
# A498 [9] = assay: Growth inhibition of human A498 cells at 1 uM after 48 hrs by sulforhodamine B assay; format: functional, cell-based
# LOX IMVI = assay: Growth inhibition of human LOXIMVI cells at 1 uM after 48 hrs by sulforhodamine B assay; format: functional, cell-based
# RXF 393 = assay: Growth inhibition of human RXF393 cells at 1 uM after 48 hrs by sulforhodamine B assay; format: functional, cell-based
# HT-29 [10] = assay: Growth inhibition of human HT-29 cells at 1 uM after 48 hrs by sulforhodamine B assay; format: functional, cell-based
# HCT-116 [11] = assay: Growth inhibition of human HCT116 cells after 48 hrs by sulforhodamine B assay; format: functional; conditions: HCT-116, 48 h
# SK-MEL-5 = assay: Growth inhibition of human SK-MEL-5 cells after 48 hrs by sulforhodamine B assay; format: functional; conditions: SK-MEL-5, 48 h
# KM12 = assay: Growth inhibition of human KM12 cells after 48 hrs by sulforhodamine B assay; format: functional; conditions: KM12, 48 h
# SF530 = assay: Growth inhibition of human SF530 cells at 1 uM after 48 hrs by sulforhodamine B assay; format: functional, cell-based
# ACHN [12] = assay: Growth inhibition of human ACHN cells after 48 hrs by sulforhodamine B assay; format: functional
# Malme-3M = assay: Growth inhibition of human MALME-3M cells after 48 hrs by sulforhodamine B assay; format: functional
# DU-145 = assay: Growth inhibition of human DU145 cells at 1 uM after 48 hrs by sulforhodamine B assay; format: functional, cell-based
# MDA-MB-435 = assay: Growth inhibition of human MDA-MB-435 cells after 48 hrs by sulforhodamine B assay; format: functional; conditions: MDA-MB-435, 48 h
# NCI-H23 = assay: Growth inhibition of human NCI-H23 cells at 1 uM after 48 hrs by sulforhodamine B assay; format: functional, cell-based
# NCI-H226 = assay: Growth inhibition of human NCI-H226 cells after 48 hrs by sulforhodamine B assay; format: functional; conditions: NCI-H226, 48 h
# MDA-MB-231 [13] = assay: Growth inhibition of human MDA-MB-231 cells after 48 hrs by sulforhodamine B assay; format: functional; conditions: MDA-MB-231, 48 h
# SW-620 = assay: Growth inhibition of human SW620 cells after 48 hrs by sulforhodamine B assay; format: functional; conditions: SW-620, 48 h
# SR = assay: Growth inhibition of human SR cells at 1 uM after 48 hrs by sulforhodamine B assay; format: functional, cell-based
# ACHN [14] = assay: Growth inhibition of human ACHN cells at 1 uM after 48 hrs by sulforhodamine B assay; format: functional, cell-based
# MOLT-4 = assay: Growth inhibition of human MOLT4 cells at 1 uM after 48 hrs by sulforhodamine B assay; format: functional, cell-based
# SN12C [15] = assay: Growth inhibition of human SN12C cells after 48 hrs by sulforhodamine B assay; format: functional
# NCI-H460 [16] = assay: Growth inhibition of human NCI-H460 cells after 48 hrs by sulforhodamine B assay; format: functional; conditions: NCI-H460, 48 h
# HT-29 [17] = assay: Growth inhibition of human HT-29 cells after 48 hrs by sulforhodamine B assay; format: functional; conditions: HT-29, 48 h
# BT-549 = assay: Growth inhibition of human BT549 cells at 1 uM after 48 hrs by sulforhodamine B assay; format: functional, cell-based
# MDA-MB-231 [18] = assay: Growth inhibition of human MDA-MB-231 cells at 1 uM after 48 hrs by sulforhodamine B assay; format: functional, cell-based
# OVCAR-8 = assay: Growth inhibition of human OVCAR8 cells at 1 uM after 48 hrs by sulforhodamine B assay; format: functional, cell-based
# TK-10 [19] = assay: Growth inhibition of human TK10 cells after 48 hrs by sulforhodamine B assay; format: functional; conditions: TK-10, 48 h
# SK-MEL-28 = assay: Growth inhibition of human SK-MEL-28 cells at 1 uM after 48 hrs by sulforhodamine B assay; format: functional, cell-based
# U-251 = assay: Growth inhibition of human U251 cells after 48 hrs by sulforhodamine B assay; format: functional; conditions: U-251, 48 h
# SF-295 = assay: Growth inhibition of human SF295 cells after 48 hrs by sulforhodamine B assay; format: functional; conditions: SF-295, 48 h
# COLO 205 [20] = assay: Growth inhibition of human COLO205 cells after 48 hrs by sulforhodamine B assay; format: functional; conditions: COLO 205, 48 h
# MDA-MB-468 = assay: Growth inhibition of human MDA-MB-468 cells at 1 uM after 48 hrs by sulforhodamine B assay; format: functional, cell-based
# [21] = read-out: LC50 (the source's name)
smiles,measurement,setting,value
Nc1nc(N)c2c(n1)NC(c1ccc(Cl)cc1)C1CCc3ccccc3C1=N2 (configuration not stated),growth inhibition (GI),RPMI-8226 [1],inactive
same,GI50,HCT-15,4.16 µM
same,LC50,HCT-15,53.9 µM
same,growth inhibition (GI),COLO 205 [2],inactive
same,GI50,RPMI-8226 [3],2.75 µM
same,LC50,RPMI-8226 [3],57.9 µM
same,growth inhibition (GI),EKVX,inactive
same,GI50,UACC-62,3.66 µM
same,LC50,UACC-62,43.3 µM
same,growth inhibition (GI),SF-539,inactive
same,growth inhibition (GI),SN12C [4],inactive
same,GI50,UACC-257,7.07 µM
same,CC50,UACC-257; [21],44.9 µM
same,growth inhibition (GI),NCI-H460 [5],inactive
same,growth inhibition (GI),TK-10 [6],inactive
same,growth inhibition (GI),HCT-116 [7],inactive
same,GI50,A498 [8],5.34 µM
same,LC50,A498 [8],44.9 µM
same,growth inhibition (GI),K562,inactive
same,growth inhibition (GI),T47D,inactive
same,growth inhibition (GI),A498 [9],inactive
same,growth inhibition (GI),LOX IMVI,inactive
same,growth inhibition (GI),RXF 393,inactive
same,growth inhibition (GI),HT-29 [10],inactive
same,GI50,HCT-116 [11],3.72 µM
same,LC50,HCT-116 [11],38.6 µM
same,GI50,SK-MEL-5,0.5 µM
same,LC50,SK-MEL-5,6.56 µM
same,GI50,KM12,8.48 µM
same,LC50 (concentration killing 50% of cells),KM12,45.6 µM
same,growth inhibition (GI),SF530,inactive
same,GI50,ACHN [12],4.72 µM
same,LC50 (50% lethal concentration),ACHN [12],44.2 µM
same,GI50,Malme-3M,8.48 µM
same,LC50,Malme-3M,54 µM
same,growth inhibition (GI),DU-145,inactive
same,GI50,MDA-MB-435,4.72 µM
same,LC50 (concentration killing 50% of cells),MDA-MB-435,54.1 µM
same,growth inhibition (GI),NCI-H23,inactive
same,GI50,NCI-H226,8.58 µM
same,LC50,NCI-H226,80.6 µM
same,GI50,MDA-MB-231 [13],9.73 µM
same,CC50,MDA-MB-231 [13]; [21],47.9 µM
same,GI50,SW-620,8.23 µM
same,LC50,SW-620,54.9 µM
same,growth inhibition (GI),SR,inactive
same,growth inhibition (GI),ACHN [14],inactive
same,growth inhibition (GI),MOLT-4,inactive
same,GI50,SN12C [15],7.68 µM
same,CC50,SN12C [15]; [21],50.9 µM
same,GI50,NCI-H460 [16],3.77 µM
same,LC50,NCI-H460 [16],39.1 µM
same,GI50,HT-29 [17],4.31 µM
same,CC50,HT-29 [17]; [21],52.6 µM
same,growth inhibition (GI),BT-549,inactive
same,growth inhibition (GI),MDA-MB-231 [18],inactive
same,growth inhibition (GI),OVCAR-8,inactive
same,GI50,TK-10 [19],8.2 µM
same,LC50 (50% lethal concentration),TK-10 [19],58 µM
same,growth inhibition (GI),SK-MEL-28,inactive
same,GI50,U-251,3.81 µM
same,LC50,U-251,43.9 µM
same,GI50,SF-295,3.37 µM
same,LC50 (50% lethal concentration),SF-295,40.7 µM
same,GI50,COLO 205 [20],2.78 µM
same,LC50 (50% lethal concentration),COLO 205 [20],30.1 µM
same,growth inhibition (GI),MDA-MB-468,inactive

# Reference: ChEMBL document CHEMBL1177848, “Synthesis of novel 6,6a,7,8-tetrahydro-5H-naphtho[1,2-e]pyrimido[4,5-b][1,4]diazepines under microwave irradiation as potential anti-tumor agents” (2010)
